Where a name gives a salt, the structure may show the parent alone. Read-outs that look alike come from different tables or passages of the source.
Legend:
[1] = target: T1, CTX-M15 β-lactamase (Escherichia coli, UniProt Q9EXV5); assay: β-lactamase enzyme inhibition assay (nitrocefin substrate), CTXM-15; format: biochemical
T1 construct: expressed as native untagged proteins; made in house; host or cells: E. coli BL21(DE3)
Experimental: (§1) Isolation of β-lactamases. For SHV-5, p99 AmpC, KPC-2 and CTX-M15 β-lactamases, E. coli BL21(DE3) bacterial cells carrying expression plasmids (expressed as native untagged proteins) for the individual β-lactamases were grown in 1 L of Superbroth (Teknova Inc. Hollister, Calif.) supplemented with 100 μg/ml kanamycin and 1×5052 (0.5% glycerol, 0.05% glucose and 0.2% α-lactose) at 35° C. for 18-20 hours. Cells were harvested by centrifugation (4,000×g, 4° C., 20 min), and resuspended in 50 ml of 10 mM HEPES pH 7.5 (1/20 of the initial volume). The cells were lysed by sonication (5 pulses of 45 seconds) at 45 W on ice. The lysates were clarified by centrifugation at 10,000×g for 40 minutes at 4° C. Samples were diluted 5-fold in 50 mM sodium acetate pH 5.0, stored overnight at 4° C., after which they were centrifuged at 10,000×g for 30 minutes to clarify, and filtered through 0.45 μm filters. The samples were loaded onto a 5 ml Capto S sepharose cation exchange column (GE Healthcare) pre-equilibrated with 50 mM sodium acetate pH 5.0. The column was washed with 5 column volumes of 50 mM sodium acetate pH 5.0 to wash out unbound protein and a linear gradient of NaCl (0 to 500 mM) was used to elute the protein (over 16 CV) from the column. Fractions were assayed for β-lactamase activity using Centa (Calbiochem, Gibbstown, N.J.) as a reporter β-lactamase substrate for activity in the isolated fractions. Active fractions were pooled, concentrated and further purified by gel filtration chromatography on a Superdex 75 prep grade gel filtration column (GE Healthcare, Piscataway, N.J.) pre-equilibrated in 50 mM Hepes pH 7.5, 150 mM NaCl. Active fractions were pooled concentrated, quantitated by BCA protein determination (Thermo Scientific, Rockford, Ill.), and frozen at −80° C. in 20% glycerol until use.
(§2) β-lactamase Inhibition. To determine the level of inhibition of β-lactamase enzymes, compounds were diluted in PBS at pH 7.0 to yield concentrations between 100 and 0.005 μM in microtiter plates. An equal volume of diluted enzyme stock was added, and the plates were incubated at 37° C. for 10 min. Nitrocefin solution was then dispensed as substrate into each well at a final concentration of 100 μM, and the plates were immediately read with the kinetic program at 486 nm for 10 min on the SPECTRAMAX® Plus^384 (high-throughput microplate spectrophotometer; Molecular Devices Corp., Sunnyvale, Calif.). Maximum rates of metabolism were then compared to those in control wells (without inhibitors), and percentages of enzyme inhibition were calculated for each concentration of inhibitor. The concentration of inhibitor needed to reduce the initial rate of hydrolysis of substrate by 50% (IC50) was calculated as the residual activity of β-lactamase at 486 nm using the SoftMax Pro 5.0 software (Molecular Devices Corp.).
(§3) Using the methodology described above, examples of the current invention were evaluated for their ability to inhibit β-lactamase enzymes. The results of these assays are summarized in Table 2 for representative enzymes across different subtypes (note SHV-5 and CTXM-15 exemplify different subclasses of Ambler Class A Extended Spectrum Beta Lactamases, KPC-2 exemplifies Class A carbapenemases, P99 represents chromosomal Class C AmpC, VIM-2 exemplifies subclass B1 of metallo-β-lactamases, and OXA-23 represents chromosome-encoded Class D oxacillin-hydrolyzing β-lactamases), NT=not tested.

[2] = system: E. cloacae expressing the Class C P99+; assay: In vitro antibacterial assay of β-lactamase inhibition (broth microdilution MIC), E. cloacae P99+; format: cell-based; details: in presence of Ceftazidime 8 μg/ml (Examples 1-56)
Excerpt: (§4) To determine the ability of test compounds to potentiate the inhibition of the growth of bacterial strains producing beta-lactamase enzymes, classic cell based screening assays were employed. Five bacteria strains producing beta-lactamase enzymes were used: K. pneumoniae expressing the Class A Extended Spectrum Beta-Lactamase (ESBL) CTX-M-15, E. coli expressing the Class A ESBL SHV-5, E. cloacae expressing the Class C P99+, K. pneumoniae expressing the Class A carbapenemase KPC-2, and P. aeruginosa expressing the Class B metallo β-lactamase VIM-2. In order to evaluate the ability of test compounds to inhibit beta-lactamase activity, Applicants used a modification of the broth microdilution assay. The assay was conducted in Cation Adjusted Mueller Hinton Broth (CAMHB, BD # 212322, BD Diagnostic Systems, Sparks, Md.). Bacteria strains were grown for 3-5 hours in CAMBH broth. All five strains were grown in presence of 50 μg/mL ampicillin to ensure resistance is maintained. In the meantime, test compounds were diluted in DMSO to a 0.1 mg/mL stock. The compounds were added to a microtiter plate and were diluted in 2-fold serial dilutions in CAMHB in a final concentration range of 8 μg/mL to 0.015 μg/ml. […] Each of these compound plates are made in quadruplicate, one for each bacteria strain. In addition to the titration of test compounds the MICs of a panel of cephalosporins is also tested to ensure the strains are behaving consistently from test to test. Once the test compound and cephalosporin are added the plates can be inoculated. Inocula are conducted according to CLSI broth microdilution method. After inoculation the plates are incubated for 16-20 hours at 37° C. then the Minimal Inhibitory Concentration (MIC) of the test compound is determined visually.
(§5) Using the methodology described above, examples of the current invention were evaluated for their ability to inhibit the growth of β-lactamase producing bacteria in the presence of a β-lactam antibiotic.

[3] = target: T2, KPC-2 β-lactamase (Klebsiella pneumoniae, UniProt Q9F663); assay: β-lactamase enzyme inhibition assay (nitrocefin substrate), KPC-2; format: biochemical
T2 construct: expressed as native untagged proteins; made in house; host or cells: E. coli BL21(DE3)
T2 sequence (Q9F663 25-293 limits assumed): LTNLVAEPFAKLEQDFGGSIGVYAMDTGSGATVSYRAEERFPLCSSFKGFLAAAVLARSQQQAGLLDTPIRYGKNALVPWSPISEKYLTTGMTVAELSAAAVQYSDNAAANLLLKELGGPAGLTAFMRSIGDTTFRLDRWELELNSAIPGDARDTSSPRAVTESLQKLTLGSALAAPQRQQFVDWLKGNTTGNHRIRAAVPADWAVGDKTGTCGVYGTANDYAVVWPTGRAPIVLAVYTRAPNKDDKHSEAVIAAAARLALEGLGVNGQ
Experimental: as §1, §2, §3

[4] = system: K. pneumoniae expressing the Class A carbapenemase KPC-2; assay: microbe, parasite or virus in culture; format: cell-based; details: in presence of Ceftazidime 8 μg/ml (Examples 1-56)
Excerpt: as §4, §5

[5] = system: P. aeruginosa expressing the Class B metallo β-lactamase VIM-2; assay: In vitro antibacterial assay of β-lactamase inhibition (broth microdilution MIC), P. aeruginosa VIM-2; format: cell-based; details: in presence of Ceftazidime 16 μg/mL (Examples 1-56)
Excerpt: as §4, §5

[6] = system: K. pneumoniae expressing the Class A Extended Spectrum Beta-Lactamase (ESBL) CTX-M-15; assay: In vitro antibacterial assay of β-lactamase inhibition (broth microdilution MIC), K. pneumoniae CTX-M-15; format: cell-based; details: in presence of Ceftazidime 8 μg/ml (Examples 1-56)
Excerpt: as §4, §5

[7] = target: T3, p99 AmpC β-lactamase (Enterobacter cloacae, UniProt P05364); assay: β-lactamase enzyme inhibition assay (nitrocefin substrate), P99 AmpC; format: biochemical
T3 construct: expressed as native untagged proteins; made in house; host or cells: E. coli BL21(DE3)
T3 sequence (P05364 21-381): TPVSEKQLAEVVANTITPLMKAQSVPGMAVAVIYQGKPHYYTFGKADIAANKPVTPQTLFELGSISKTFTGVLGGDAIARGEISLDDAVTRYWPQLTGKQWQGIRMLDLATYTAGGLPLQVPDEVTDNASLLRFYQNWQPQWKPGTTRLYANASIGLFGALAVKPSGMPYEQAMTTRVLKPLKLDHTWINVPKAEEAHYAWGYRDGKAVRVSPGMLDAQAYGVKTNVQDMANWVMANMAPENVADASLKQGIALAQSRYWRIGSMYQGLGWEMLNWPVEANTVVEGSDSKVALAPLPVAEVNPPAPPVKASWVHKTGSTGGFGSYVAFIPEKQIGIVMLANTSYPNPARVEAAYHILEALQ
Experimental: as §1, §2, §3

[8] = system: E. coli expressing the Class A ESBL SHV-5; assay: In vitro antibacterial assay of β-lactamase inhibition (broth microdilution MIC), E. coli SHV-5; format: cell-based; details: in presence of Ceftazidime 8 μg/ml (Examples 1-56)
Excerpt: as §4, §5

[9] = target: T4, SHV-5 β-lactamase (Klebsiella pneumoniae, UniProt P0A3M1); assay: β-lactamase enzyme inhibition assay (nitrocefin substrate), SHV-5; format: biochemical
T4 construct: expressed as native untagged proteins; made in house; host or cells: E. coli BL21(DE3)
T4 sequence (P0A3M1 22-286): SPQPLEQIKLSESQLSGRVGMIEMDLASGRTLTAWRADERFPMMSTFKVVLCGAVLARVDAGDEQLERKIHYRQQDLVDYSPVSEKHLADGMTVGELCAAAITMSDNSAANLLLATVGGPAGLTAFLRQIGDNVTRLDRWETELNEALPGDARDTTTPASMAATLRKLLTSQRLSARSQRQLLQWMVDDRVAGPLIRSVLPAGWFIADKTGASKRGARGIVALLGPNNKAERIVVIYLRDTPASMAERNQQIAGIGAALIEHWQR
Experimental: as §1, §2, §3

[10] = nitrocefin 100 μM, 37° C., PBS pH 7.0, read-out: P99 AmpC IC50

T1 sequence (Q9EXV5 entry or part of it): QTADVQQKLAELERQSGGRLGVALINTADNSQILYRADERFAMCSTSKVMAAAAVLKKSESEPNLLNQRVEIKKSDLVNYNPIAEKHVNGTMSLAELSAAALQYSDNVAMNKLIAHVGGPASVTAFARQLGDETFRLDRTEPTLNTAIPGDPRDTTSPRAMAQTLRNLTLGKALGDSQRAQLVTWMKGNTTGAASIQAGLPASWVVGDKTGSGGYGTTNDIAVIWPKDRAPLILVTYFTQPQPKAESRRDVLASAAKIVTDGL

Compound	IC50 [1]	MIC of example compound, E. cloacae P99+ [2]	IC50 [3]	MIC of example compound, K. pneumoniae KPC-2 [4]	MIC of example compound, P. aeruginosa VIM-2 [5]	MIC of example compound, K. pneumoniae CTX-M-15 [6]	IC50 [7, 10]	MIC of example compound, E. coli SHV-5 [8]	IC50 [9]	IC50 [7]	IC50 ([1]; nitrocefin 100 μM, 37° C., PBS pH 7.0, read-out: CTXM-15 IC50)	IC50 ([3]; nitrocefin 100 μM, 37° C., PBS pH 7.0, read-out: KPC-2 IC50)	IC50 ([9]; nitrocefin 100 μM, 37° C., PBS pH 7.0, read-out: SHV-5 IC50)
CC(=O)N(CCN)Cc1cccc(C(=O)N[C@@H](Cc2cccc(C(=O)O)c2O)B(O)O)c1 [Example 24, (1R)-(3-{[acetyl-(2-amino-ethyl)-amino]-methyl}-benzoylamino)-(3-carboxy-2-hydroxy)benzyl-methylboronic acid formate]	4 nM	1 µg/mL	18 nM	0.12 µg/mL	>8 µg/mL	1 µg/mL	2 nM	8 µg/mL	350 nM	–	–	–	–
O=C(N[C@@H](Cc1cccc(C(=O)O)c1O)B(O)O)c1cccc(CNCCCO)c1 [Example 25, (1R)-[3-{(3-hydroxy-propylamino)-methyl}-benzoylamino]-(3-carboxy-2hydroxy)benzyl-methylboronic acid formate]	3 nM	0.5 µg/mL	20 nM	0.03 µg/mL	>8 µg/mL	1 µg/mL	0.9 nM	8 µg/mL	580 nM	–	–	–	–
O=C(N[C@@H](Cc1cccc(C(=O)O)c1O)B(O)O)c1cccc(CNc2cccnc2)c1 [Example 26, (1R)-[3-(pyridin-3-ylaminomethyl)-benzoylamino]-(3-carboxy-2hydroxy)benzyl-methylboronic acid formate]	1 nM	2 µg/mL	11 nM	0.5 µg/mL	>8 µg/mL	4 µg/mL	0.4 nM	>8 µg/mL	94 nM	–	–	–	–
CN(C)Cc1cccc(C(=O)N[C@@H](Cc2cccc(C(=O)O)c2O)B(O)O)c1 [Example 27, (1R)-(3-dimethylaminomethyl-benzoylamino)-(3-carboxy-2-hydroxy)benzyl-methylboronic acid formate]	3 nM	0.5 µg/mL	14 nM	0.03 µg/mL	>8 µg/mL	1 µg/mL	1.4 nM	>8 µg/mL	312 nM	–	–	–	–
CC(C)(O/N=C(\C(=O)N[C@@H](Cc1cccc(C(=O)O)c1O)B(O)O)c1csc(NC(=O)CN)n1)C(=O)O.Cl [Example 50, 3-{2(R)-[2-[2-(2-amino-acetylamino)-thiazol-4-yl]-2(Z)-(1-carboxy-1-methyl-ethoxyimino)-acetylamino]-2-borono-ethyl}-2-hydroxy-benzoic acid hydrochloride]	34 nM	>8 µg/mL	158 nM	>8 µg/mL	>8 µg/mL	>8 µg/mL	23 nM	>8 µg/mL	24 nM	–	–	–	–
CO/N=C(\C(=O)N[C@@H](Cc1cccc(C(=O)O)c1O)B(O)O)c1csc(NC(=O)CN)n1.Cl [Example 51, 3-(2(R)-{2-[2-(2-amino-acetylamino)-thiazol-4-yl]-2(Z)-methoxyimino-acetylamino}-2-borono-ethyl)-2-hydroxy-benzoic acid hydrochloride]	40 nM	>8 µg/mL	58 nM	>8 µg/mL	>8 µg/mL	>8 µg/mL	17 nM	>8 µg/mL	15 nM	–	–	–	–
CO/N=C(\C(=O)N[C@@H](Cc1cccc(C(=O)O)c1O)B(O)O)c1csc(NC(=O)[C@@H](N)CCCCN)n1 [Example 52, 3-(2(R)-{2-[2-(2(S),6-diamino-hexanoylamino)-thiazol-4-yl]-2(Z)-methoxyimino-acetylamino}-2-borono-ethyl)-2-hydroxy-benzoic acid hydrochloride]	55 nM	>8 µg/mL	89 nM	2 µg/mL	>8 µg/mL	>8 µg/mL	–	>8 µg/mL	26 nM	8 nM	–	–	–
(1R)-[4-(1-amino-cyclopropyl)]-benzoylamino]-(3-carboxy-2-hydroxy)benzyl-methylboronic acid formate [Example 22]	–	0.5 µg/mL	–	0.007 µg/mL	>8 µg/mL	2 µg/mL	34 nM	8 µg/mL	–	–	0.6 nM	5 nM	> 1000 nM
